ChEMBL document CHEMBL1201862, “PubChem BioAssay data set” (2004)
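Cells were grown in 96-well plates and exposed to each compound for 48 hours at five concentrations; endpoints were interpolated linearly between bracketing concentrations, or set to the highest concentration if not reached. GI50 = concentration required for 50% inhibition of growth.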 Activity calls are given as the source filed them. Rule as the data show it: active = GI50 up to about 1.1 µM and inactive = higher.

Columns and labels:
Test in all cases: NCI tumour cell line growth inhibition, 48 h
A549 = tested on: A549
NCI-H226 = tested on: NCI-H226
HCC 2998 = tested on: HCC 2998
SF-539 = tested on: SF-539
NCI-H460 = tested on: NCI-H460
MDA-MB-435 = tested on: MDA-MB-435
K562 = tested on: K562
SNB-19 = tested on: SNB-19
CAKI-1 = tested on: CAKI-1
U-251 = tested on: U-251
CCRF-CEM = tested on: CCRF-CEM
SK-MEL-2 = tested on: SK-MEL-2
MCF7 = tested on: MCF7
UACC-62 = tested on: UACC-62
HCT-116 = tested on: HCT-116
Malme-3M = tested on: Malme-3M
UACC-257 = tested on: UACC-257
786-0 = tested on: 786-0
SN12C = tested on: SN12C
MOLT-4 = tested on: MOLT-4
Hs-578T = tested on: Hs-578T
NCI-H23 = tested on: NCI-H23
OVCAR-8 = tested on: OVCAR-8
MDA-N = tested on: MDA-N
OVCAR-5 = tested on: OVCAR-5
HOP-62 = tested on: HOP-62
SK-OV-3 = tested on: SK-OV-3
MDA-MB-231 = tested on: MDA-MB-231
OVCAR-4 = tested on: OVCAR-4
SW-620 = tested on: SW-620
RPMI-8226 = tested on: RPMI-8226
HT-29 = tested on: HT-29
OVCAR-3 = tested on: OVCAR-3
SNB-75 = tested on: SNB-75
DU-145 = tested on: DU-145
COLO 205 = tested on: COLO 205
SK-MEL-5 = tested on: SK-MEL-5
UO-31 = tested on: UO-31
RXF 393 = tested on: RXF 393
ACHN = tested on: ACHN
HL-60 = tested on: HL-60
SF-268 = tested on: SF-268
TK-10 = tested on: TK-10
SR = tested on: SR
M14 = tested on: M14
A498 = tested on: A498
LOX IMVI = tested on: LOX IMVI
SK-MEL-28 = tested on: SK-MEL-28
KM12 = tested on: KM12
EKVX = tested on: EKVX
HCT-15 = tested on: HCT-15
T47D = tested on: T47D
PC-3 = tested on: PC-3
SF-295 = tested on: SF-295
BT-549 = tested on: BT-549
NCI-H522 = tested on: NCI-H522
IGROV-1 = tested on: IGROV-1
HOP-92 = tested on: HOP-92
NCI/ADR-RES = tested on: NCI/ADR-RES

SMILES: Cc1ncc([N+](=O)[O-])n1CCN(C)CCCCn1ccnc1[N+](=O)[O-]
- GI50 (A549): > 100 µM (inactive)
- GI50 (NCI-H226): > 100 µM (inactive)
- GI50 (HCC 2998): > 100 µM (inactive)
- GI50 (SF-539): > 100 µM (inactive)
- GI50 (NCI-H460): > 100 µM (inactive)
- GI50 (MDA-MB-435): > 100 µM (inactive)
- GI50 (K562): > 100 µM (inactive)
- GI50 (SNB-19): > 100 µM (inactive)
- GI50 (CAKI-1): > 100 µM (inactive)
- GI50 (U-251): > 100 µM (inactive)
- GI50 (CCRF-CEM): > 100 µM (inactive)
- GI50 (SK-MEL-2): > 100 µM (inactive)
- GI50 (MCF7): > 100 µM (inactive)
- GI50 (UACC-62): > 100 µM (inactive)
- GI50 (HCT-116): > 100 µM (inactive)
- GI50 (Malme-3M): > 100 µM (inactive)
- GI50 (UACC-257): > 100 µM (inactive)
- GI50 (786-0): > 100 µM (inactive)
- GI50 (SN12C): > 100 µM (inactive)
- GI50 (MOLT-4): > 100 µM (inactive)
- GI50 (Hs-578T): > 100 µM (inactive)
- GI50 (NCI-H23): > 100 µM (inactive)
- GI50 (OVCAR-8): > 100 µM (inactive)
- GI50 (MDA-N): > 100 µM (inactive)
- GI50 (OVCAR-5): > 100 µM (inactive)
- GI50 (HOP-62): > 100 µM (inactive)
- GI50 (SK-OV-3): > 100 µM (inactive)
- GI50 (MDA-MB-231): > 100 µM (inactive)
- GI50 (OVCAR-4): > 100 µM (inactive)
- GI50 (SW-620): > 100 µM (inactive)
- GI50 (RPMI-8226): > 100 µM (inactive)
- GI50 (HT-29): > 100 µM (inactive)
- GI50 (OVCAR-3): > 100 µM (inactive)
- GI50 (SNB-75): > 100 µM (inactive)
- GI50 (DU-145): > 100 µM (inactive)
- GI50 (COLO 205): > 100 µM (inactive)
- GI50 (SK-MEL-5): > 100 µM (inactive)
- GI50 (UO-31): > 100 µM (inactive)
- GI50 (RXF 393): > 100 µM (inactive)
- GI50 (ACHN): > 100 µM (inactive)
- GI50 (HL-60): > 100 µM (inactive)
- GI50 (SF-268): > 100 µM (inactive)
- GI50 (TK-10): > 100 µM (inactive)
- GI50 (SR): > 100 µM (inactive)
- GI50 (M14): > 100 µM (inactive)
- GI50 (A498): > 100 µM (inactive)
- GI50 (LOX IMVI): > 100 µM (inactive)
- GI50 (SK-MEL-28): > 100 µM (inactive)
- GI50 (KM12): > 100 µM (inactive)
- GI50 (EKVX): > 100 µM (inactive)
- GI50 (HCT-15): > 100 µM
- GI50 (T47D): > 100 µM (inactive)
- GI50 (PC-3): > 100 µM (inactive)
- GI50 (SF-295): > 100 µM (inactive)
- GI50 (BT-549): > 100 µM (inactive)

SMILES: O=C1C2CCCCC2C(=O)N1n1c(Cc2ccccc2)n[nH]c1=O (centres undefined)
- GI50 (A549): > 100 µM (inactive)
- GI50 (NCI-H226): > 100 µM (inactive)
- GI50 (HCC 2998): > 100 µM (inactive)
- GI50 (SF-539): > 100 µM (inactive)
- GI50 (NCI-H460): > 100 µM (inactive)
- GI50 (MDA-MB-435): > 100 µM (inactive)
- GI50 (K562): > 100 µM (inactive)
- GI50 (SNB-19): > 100 µM (inactive)
- GI50 (NCI-H522): > 100 µM (inactive)
- GI50 (CAKI-1): > 100 µM (inactive)
- GI50 (U-251): > 100 µM (inactive)
- GI50 (CCRF-CEM): > 100 µM (inactive)
- GI50 (SK-MEL-2): > 100 µM (inactive)
- GI50 (MCF7): > 100 µM (inactive)
- GI50 (UACC-62): > 100 µM (inactive)
- GI50 (HCT-116): > 100 µM (inactive)
- GI50 (Malme-3M): > 100 µM (inactive)
- GI50 (UACC-257): > 100 µM (inactive)
- GI50 (786-0): > 100 µM (inactive)
- GI50 (SN12C): > 100 µM (inactive)
- GI50 (MOLT-4): > 100 µM (inactive)
- GI50 (Hs-578T): > 100 µM (inactive)
- GI50 (NCI-H23): > 100 µM (inactive)
- GI50 (OVCAR-8): > 100 µM (inactive)
- GI50 (MDA-N): > 100 µM (inactive)
- GI50 (OVCAR-5): > 100 µM (inactive)
- GI50 (IGROV-1): > 100 µM (inactive)
- GI50 (HOP-62): > 100 µM (inactive)
- GI50 (SK-OV-3): > 100 µM (inactive)
- GI50 (MDA-MB-231): > 100 µM (inactive)
- GI50 (OVCAR-4): > 100 µM (inactive)
- GI50 (HOP-92): > 100 µM (inactive)
- GI50 (SW-620): > 100 µM (inactive)
- GI50 (RPMI-8226): > 100 µM (inactive)
- GI50 (HT-29): > 100 µM (inactive)
- GI50 (OVCAR-3): > 100 µM (inactive)
- GI50 (SNB-75): > 100 µM (inactive)
- GI50 (COLO 205): > 100 µM (inactive)
- GI50 (SK-MEL-5): > 100 µM (inactive)
- GI50 (UO-31): > 100 µM (inactive)
- GI50 (RXF 393): > 100 µM (inactive)
- GI50 (ACHN): > 100 µM (inactive)
- GI50 (NCI/ADR-RES): > 100 µM (inactive)
- GI50 (SF-268): > 100 µM (inactive)
- GI50 (TK-10): > 100 µM (inactive)
- GI50 (SR): > 100 µM (inactive)
- GI50 (M14): > 100 µM (inactive)
- GI50 (A498): > 100 µM (inactive)
- GI50 (LOX IMVI): > 100 µM (inactive)
- GI50 (KM12): > 100 µM (inactive)
- GI50 (EKVX): > 100 µM (inactive)
- GI50 (HCT-15): > 100 µM
- GI50 (T47D): > 100 µM (inactive)
- GI50 (PC-3): > 100 µM (inactive)
- GI50 (SF-295): > 100 µM (inactive)
- GI50 (BT-549): > 100 µM (inactive)

SMILES: c1ccc2c(c1)CC1COc3ccccc3C1O2 (centres undefined)
- GI50 (A549): 50.1 µM (inactive)
- GI50 (NCI-H226): > 100 µM (inactive)
- GI50 (HCC 2998): 42.3 µM (inactive)
- GI50 (SF-539): > 100 µM (inactive)
- GI50 (MDA-MB-435): 47.4 µM (inactive)
- GI50 (K562): > 100 µM (inactive)
- GI50 (NCI-H522): 57.4 µM (inactive)
- GI50 (CAKI-1): 71.3 µM (inactive)
- GI50 (U-251): 54.3 µM (inactive)
- GI50 (CCRF-CEM): 73.6 µM (inactive)
- GI50 (SK-MEL-2): 44.6 µM (inactive)
- GI50 (MCF7): 45.2 µM (inactive)
- GI50 (UACC-62): > 100 µM (inactive)
- GI50 (HCT-116): 45.8 µM (inactive)
- GI50 (Malme-3M): > 100 µM (inactive)
- GI50 (UACC-257): 38.8 µM (inactive)
- GI50 (786-0): 50.7 µM (inactive)
- GI50 (SN12C): 67.5 µM (inactive)
- GI50 (MOLT-4): 30.3 µM (inactive)
- GI50 (NCI-H23): 67.1 µM (inactive)
- GI50 (OVCAR-8): > 100 µM (inactive)
- GI50 (MDA-N): 38 µM (inactive)
- GI50 (OVCAR-5): > 100 µM (inactive)
- GI50 (IGROV-1): 86.1 µM (inactive)
- GI50 (HOP-62): 56.6 µM (inactive)
- GI50 (SK-OV-3): > 100 µM (inactive)
- GI50 (MDA-MB-231): 47.4 µM (inactive)
- GI50 (HOP-92): 47 µM (inactive)
- GI50 (SW-620): 46.8 µM (inactive)
- GI50 (RPMI-8226): 27.5 µM (inactive)
- GI50 (HT-29): 33.4 µM (inactive)
- GI50 (OVCAR-3): 67.8 µM (inactive)
- GI50 (SNB-75): > 100 µM (inactive)
- GI50 (DU-145): > 100 µM (inactive)
- GI50 (COLO 205): > 100 µM (inactive)
- GI50 (SK-MEL-5): 17.4 µM (inactive)
- GI50 (UO-31): 51.1 µM (inactive)
- GI50 (ACHN): 75.9 µM (inactive)
- GI50 (NCI/ADR-RES): 47.8 µM (inactive)
- GI50 (HL-60): > 100 µM (inactive)
- GI50 (SF-268): > 100 µM (inactive)
- GI50 (TK-10): 95.5 µM (inactive)
- GI50 (SR): 88.1 µM (inactive)
- GI50 (M14): > 100 µM (inactive)
- GI50 (A498): > 100 µM (inactive)
- GI50 (LOX IMVI): 58.7 µM (inactive)
- GI50 (KM12): 44.2 µM (inactive)
- GI50 (EKVX): 48.3 µM (inactive)
- GI50 (HCT-15): 40.2 µM
- GI50 (T47D): 51.4 µM (inactive)
- GI50 (PC-3): 70.6 µM (inactive)
- GI50 (SF-295): 64.4 µM (inactive)
- GI50 (BT-549): 70.3 µM (inactive)
